≈ marks a conversion by molar mass, not a printed value.
Columns and labels:
Format in all cases: functional
Escherichia coli [1] = assay: Antimicrobial activity against Escherichia coli K-12 containing delta-lacU169 tolC::Tn10 gyrA S83L mutant by microbroth dilution assay
Staphylococcus aureus = assay: Antimicrobial activity against Staphylococcus aureus ATCC 29213 by microbroth dilution assay
Escherichia coli [2] = assay: Antimicrobial activity against Escherichia coli K-12 containing delta-lacU169 tolC::Tn10 gyrA D87Y mutant by microbroth dilution assay
Escherichia coli [3] = assay: Antimicrobial activity against Escherichia coli K-12 containing delta-lacU169 tolC::Tn10 mutant by microbroth dilution assay
Escherichia coli [4] = assay: Antimicrobial activity against Escherichia coli K-12 containing delta-lacU169 mutant by microbroth dilution assay

CC(C)(C)OC(=O)N1CCN(c2cc3c(cc2F)c(=O)c2c(n3C3CC3)COB2O)CC1
MIC (Escherichia coli [1]): > 256 µg/mL
MIC (Staphylococcus aureus): > 256 µg/mL
MIC (Escherichia coli [2]): > 256 µg/mL
MIC (Escherichia coli [3]): > 256 µg/mL
MIC (Escherichia coli [4]): > 256 µg/mL

O=c1c(Br)c(CO)n(C2CC2)c2cc(N3CCNCC3)c(F)cc12
MIC (Escherichia coli [1]): 256 µg/mL (≈ 646 µM)
MIC (Staphylococcus aureus): > 256 µg/mL
MIC (Escherichia coli [2]): > 256 µg/mL
MIC (Escherichia coli [3]): 128 µg/mL (≈ 323 µM)
MIC (Escherichia coli [4]): > 256 µg/mL

O=c1cc(CO)n(C2CC2)c2cc(N3CCNCC3)c(F)cc12
MIC (Escherichia coli [1]): > 256 µg/mL
MIC (Staphylococcus aureus): > 256 µg/mL
MIC (Escherichia coli [2]): > 256 µg/mL
MIC (Escherichia coli [3]): > 256 µg/mL
MIC (Escherichia coli [4]): > 256 µg/mL

O=c1c2c(n(C3CC3)c3cc(N4CCNCC4)c(F)cc13)COB2O
MIC (Escherichia coli [1]): 64 µg/mL (≈ 186 µM)
MIC (Staphylococcus aureus): 128 µg/mL (≈ 373 µM)
MIC (Escherichia coli [2]): 32 µg/mL (≈ 93.2 µM)
MIC (Escherichia coli [3]): 16 µg/mL (≈ 46.6 µM)
MIC (Escherichia coli [4]): 128 µg/mL (≈ 373 µM)

Reference: ChEMBL document CHEMBL2311376, “Synthesis and antibacterial evaluation of a novel tricyclic oxaborole-fused fluoroquinolone” (2013)
